BigSolDB 2.1

O=C(N[C@@H](Cc1ccc(O)cc1)C(=O)O)OCC1c2ccccc2-c2ccccc21
solubility (mole fraction)
Details	293.15 K	298.15 K	303.15 K	308.15 K	313.15 K	318.15 K	323.15 K	328.15 K	333.15 K
in acetone	0.0683	0.0723	0.077	0.078	0.0824	0.0901	0.0959	–	–
in acetonitrile	0.00233	0.00272	0.00326	0.00382	0.00432	0.00504	0.00637	0.00781	0.00884
in dimethyl carbonate	0.00346	0.00367	0.0044	0.00477	0.00583	0.00638	0.00747	0.00918	0.0109
in ethyl acetate	0.0129	0.0135	0.014	0.0152	0.0164	0.019	0.0203	0.0222	0.0254
in isobutanol	0.00543	0.00685	0.00823	0.00992	0.0123	0.0146	0.0175	0.0219	0.0279
in isopropanol	0.0147	0.0179	0.0213	0.027	0.0307	0.0385	0.043	0.0546	0.0691
in methyl acetate	0.0155	0.0163	0.0173	0.0177	0.0209	0.0219	0.0249	–	–
in n-butanol	0.0129	0.0151	0.0178	0.0198	0.0231	0.0281	0.0319	0.0385	0.0463
in n-butyl acetate	0.00611	0.00636	0.00688	0.00765	0.00862	0.00933	0.00976	0.0118	0.0124
in n-pentanol	0.0111	0.0121	0.0144	0.0168	0.02	0.0231	0.0244	0.0324	0.0388
in n-propyl acetate	0.00762	0.00799	0.00861	0.00951	0.0104	0.0108	0.0126	0.0138	0.015
in sec-butanol	0.0146	0.018	0.0215	0.0263	0.0323	0.0388	0.0454	0.0538	0.0639
